Experimental data as given in patent publication US12077503B2, “Substituted cyclic amides and their use as herbicides” (FMC CORPORATION, priority 2015, dated 2024).

Legend:
Assay type in all cases: in vivo
[1] = system: sedge, umbrella (small-flower umbrella sedge, Cyperus difformis); assay: Test B flooded paddy test; settings: Cyperus difformis, 250 g ai/ha, Flood; 0 to 100 scale where 0 is no effect and 100 is complete control; read-out: Sedge, Umbrella plant response rating
Method in brief: (§1)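 Response scored visually against untreated controls, 0 = no effect and 100 = complete control, 13–15 d after treatment in the greenhouse. Compounds added to paddy water held 3 cm above soil surface. Treatment given at 2-leaf stage.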

[2] = system: rice (Oryra sativa); assay: Test B flooded paddy test; settings: Oryza sativa, 250 g ai/ha, Flood; 0 to 100 scale where 0 is no effect and 100 is complete control; read-out: Rice plant response rating
Method in brief: as §1

[3] = system: barnyardgrass (Echinochloa crus-galli); assay: Test B flooded paddy test; settings: Echinochloa crus-galli, 250 g ai/ha, Flood; 0 to 100 scale where 0 is no effect and 100 is complete control; read-out: Barnyardgrass plant response rating
Method in brief: as §1

[4] = system: ducksalad (Heteranthera limosa); assay: Test B flooded paddy test; settings: Heteranthera limosa, 250 g ai/ha, Flood; 0 to 100 scale where 0 is no effect and 100 is complete control; read-out: Ducksalad plant response rating
Method in brief: as §1

[5] = system: giant foxtail (Setaria faberii); assay: Test A postemergence; settings: Setaria faberi, post-emergence, 240 h, Postemergence, read-out: Foxtail, Giant plant response rating (0 to 100 scale)
Method in brief: (§2)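 Each rating is a visual injury score from 0 to 100 given about 10 d after treatment, judged against untreated controls kept alongside in the greenhouse. In loam soil–sand blend, seeds got a preemergence directed soil spray, while postemergence plants were 2 to 10 cm tall at spraying.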

[6] = system: ragweed (common ragweed, Ambrosia elatior); assay: Test A postemergence; settings: Ambrosia artemisiifolia, post-emergence, 240 h, Postemergence, read-out: Ragweed plant response rating (0 to 100 scale)
Method in brief: as §2

[7] = system: corn (Zea mays); assay: Test A postemergence; settings: Zea mays, post-emergence, 240 h, Postemergence, read-out: Corn plant response rating (0 to 100 scale)
Method in brief: as §2

[8] = system: blackgrass (Alopecurus myosuroides); assay: Test A postemergence; settings: Alopecurus myosuroides, post-emergence, 240 h, Postemergence, read-out: Blackgrass plant response rating (0 to 100 scale)
Method in brief: as §2

[9] = system: pigweed (Amaranthus retroflexus); assay: Test A postemergence; settings: Amaranthus retroflexus, post-emergence, 240 h, Postemergence, read-out: Pigweed plant response rating (0 to 100 scale)
Method in brief: as §2

[10] = system: Kochia (Kochia scoparia); assay: Test A postemergence; settings: Bassia scoparia, post-emergence, 240 h, Postemergence, read-out: Kochia plant response rating (0 to 100 scale)
Method in brief: as §2

[11] = system: barnyardgrass (Echinochloa crus-galli); assay: Test A postemergence; settings: Echinochloa crus-galli, post-emergence, 240 h, Postemergence
Method in brief: as §2

[12] = system: Galium (catchweed bedstraw, Galium aparine); assay: Test A postemergence; settings: Galium, post-emergence, 240 h, Postemergence, read-out: Galium plant response rating (0 to 100 scale)
Method in brief: as §2

[13] = system: ryegrass, Italian (Italian ryegrass, Lolium multiflorum); assay: Test A postemergence; settings: Lolium multiflorum, post-emergence, 240 h, Postemergence, read-out: Ryegrass, Italian plant response rating (0 to 100 scale)
Method in brief: as §2

[14] = system: wheat (Triticum aestivum); assay: Test A postemergence; settings: Triticum aestivum, post-emergence, 240 h, Postemergence, read-out: Wheat plant response rating (0 to 100 scale)
Method in brief: as §2

[15] = system: giant foxtail (Setaria faberii); assay: Test A preemergence; settings: Setaria faberi, pre-emergence, 240 h, 0 to 100 scale where 0 is no effect and 100 is complete control, read-out: Foxtail, Giant plant response rating
Method in brief: as §2

[16] = system: ragweed (common ragweed, Ambrosia elatior); assay: Test A preemergence; settings: Ambrosia artemisiifolia, pre-emergence, 240 h, 0 to 100 scale where 0 is no effect and 100 is complete control, read-out: Ragweed plant response rating
Method in brief: as §2

[17] = system: pigweed (Amaranthus retroflexus); assay: Test A preemergence; settings: Amaranthus retroflexus, pre-emergence, 240 h, 0 to 100 scale where 0 is no effect and 100 is complete control, read-out: Pigweed plant response rating
[18] = system: Kochia (Kochia scoparia); assay: Test A preemergence; settings: Bassia scoparia, pre-emergence, 240 h, 0 to 100 scale where 0 is no effect and 100 is complete control, read-out: Kochia plant response rating
Method in brief: as §2

[19] = system: barnyardgrass (Echinochloa crus-galli); assay: Test A preemergence; settings: Echinochloa crus-galli, pre-emergence, 240 h, 0 to 100 scale where 0 is no effect and 100 is complete control, read-out: Barnyardgrass plant response rating
Method in brief: as §2

[20] = system: ryegrass, Italian (Italian ryegrass, Lolium multiflorum); assay: Test A preemergence; settings: Lolium multiflorum, pre-emergence, 240 h, 0 to 100 scale where 0 is no effect and 100 is complete control, read-out: Ryegrass, Italian plant response rating
Method in brief: as §2

[21] = 125 g ai/ha, visual rating about 10 d after treatment
[22] = 31 g ai/ha, 0 is no effect, 100 is complete control
[23] = 125 g ai/ha, preemergence, visual injury rating, approximately 10 d

CN1C[C@H](c2ccc(C(F)(F)F)cc2)[C@@H](C(=O)Nc2ccccc2-n2cncn2)C1=O [Compound 1288]
0%: pest or weed control at 250 g/ha [1] | pest or weed control at 250 g/ha [2] | pest or weed control at 250 g/ha [3] | pest or weed control at 250 g/ha [4] | pest or weed control at 125 g/ha [5, 21] | pest or weed control at 31 g/ha [5, 22] | pest or weed control at 125 g/ha [6, 21] | pest or weed control at 31 g/ha [6, 22] | plant injury at 125 g/ha [7, 21] | plant injury at 31 g/ha [7, 22] | pest or weed control at 125 g/ha [8, 21] | pest or weed control at 31 g/ha [8, 22] | pest or weed control at 125 g/ha [9, 21] | pest or weed control at 31 g/ha [9, 22] | pest or weed control at 125 g/ha [10, 21] | pest or weed control at 31 g/ha [10, 22] | pest or weed control at 125 g/ha ([11]; 125 g ai/ha, visual rating about 10 d after treatment, read-out: Barnyardgrass plant response rating (0 to 100 scale, 0 no effect, 100 complete control)) | pest or weed control at 31 g/ha ([11]; 31 g ai/ha, 0 is no effect, 100 is complete control, read-out: Barnyardgrass plant response rating (0 to 100 scale)) | pest or weed control at 125 g/ha [12, 21] | pest or weed control at 31 g/ha [12, 22] | pest or weed control at 125 g/ha [13, 21] | pest or weed control at 31 g/ha [13, 22] | plant injury at 125 g/ha [14, 21] | plant injury at 31 g/ha [14, 22] | pest or weed control at 31 g/ha ([15]; 31 g ai/ha, Preemergence) | pest or weed control at 125 g/ha [15, 23] | pest or weed control at 31 g/ha ([16]; 31 g ai/ha, Preemergence) | pest or weed control at 125 g/ha [16, 23] | pest or weed control at 31 g/ha ([17]; 31 g ai/ha, Preemergence) | pest or weed control at 125 g/ha [17, 23] | pest or weed control at 31 g/ha ([18]; 31 g ai/ha, Preemergence) | pest or weed control at 125 g/ha [18, 23] | pest or weed control at 31 g/ha ([19]; 31 g ai/ha, Preemergence) | pest or weed control at 125 g/ha [19, 23] | pest or weed control at 31 g/ha ([20]; 31 g ai/ha, Preemergence) | pest or weed control at 125 g/ha [20, 23]
